The test system of data set [1] is Mycobacterium tuberculosis. As to the kind of experiment: Antimycobacterial activity against Mycobacterium tuberculosis H37Rv under starvation condition assessed as inhibition of bacterial growth at 6.25 ug/ml measured after 3 days relative to control. The format is functional. To be noted: 72 h, time 3 day.
Data set [2] deals with Mycobacterium tuberculosis. As to the kind of experiment: Antimycobacterial activity against Mycobacterium tuberculosis H37Rv under starvation condition assessed as inhibition of bacterial growth at 25 ug/ml measured after 9 days relative to control. The format is functional. The conditions noted are these: 216 h, time 9 day.
Data set [3] concerns Mycobacterium tuberculosis. As to the kind of experiment: Antimycobacterial activity against Mycobacterium tuberculosis H37Rv assessed as inhibition of bacterial growth at 100 ug/ml measured after 9 days relative to control. To be noted: 216 h, time 9 day. In kind it is functional.
Data set [4] is described as follows: Selectivity index, ratio of IC50 for African green monkey Vero cells to MIC for antimycobacterial activity against Mycobacterium tuberculosis FURG-2. To be noted: read-out: Selectivity Index. In kind it is toxicity.
Data set [5] concerns Mycobacterium tuberculosis. Nature of the data set: Antimycobacterial activity against Mycobacterium tuberculosis H37Rv under starvation condition assessed as inhibition of bacterial growth at 6.25 ug/ml measured after 1 day relative to control. The format is functional. To be noted: 24 h.
The subject of data set [6] is Mycobacterium tuberculosis. As to the kind of experiment: Antimycobacterial activity against Mycobacterium tuberculosis H37Rv under starvation condition assessed as inhibition of bacterial growth at 6.25 ug/ml measured after 9 days relative to control. The format is functional. The conditions noted are these: 216 h, time 9 day.
Data set [7] relates to Mycobacterium tuberculosis. Nature of the data set: Antimycobacterial activity against Mycobacterium tuberculosis H37Rv assessed as inhibition of bacterial growth at 100 ug/ml measured after 3 days relative to control. The format is functional. The conditions noted are these: 72 h, time 3 day.
Data set [8] has as its system Mycobacterium tuberculosis. As to the kind of experiment: Antimycobacterial activity against Mycobacterium tuberculosis H37Rv under starvation condition assessed as inhibition of bacterial growth at 25 ug/ml measured after 1 day relative to control. The format is functional. The conditions noted are these: 24 h.
The test system of data set [9] is Mycobacterium tuberculosis. As to the kind of experiment: Antimycobacterial activity against Mycobacterium tuberculosis H37Rv assessed as inhibition of bacterial growth measured by Resazurin microtitre assay. The format is functional. In general terms: The colour change of resazurin is a common sign of viable cells or microbes.
A short description of data set [10]: Cytotoxicity against African green monkey Vero cells assessed as cell viability at 100 ug/ml measured after 24 hrs relative to control. In kind it is cell-based. The conditions noted are these: chlorocebus sabaeus, at 100 µg/mL, read-out: Activity.
The subject of another data set is Vero. As to the kind of experiment: Cytotoxicity against African green monkey Vero cells assessed as cell viability measured after 24 hrs. In kind it is cell-based. To be noted: Chlorocebus sabaeus.
Data set [11] relates to Mycobacterium tuberculosis. As to the kind of experiment: Antimycobacterial activity against Mycobacterium tuberculosis H37Rv under starvation condition assessed as inhibition of bacterial growth at 100 ug/ml measured after 9 days relative to control. The format is functional. The conditions noted are these: 216 h, time 9 day.
In data set [12] the test system is Mycobacterium tuberculosis. As to the kind of experiment: Antimycobacterial activity against Mycobacterium tuberculosis H37Rv under starvation condition assessed as inhibition of bacterial growth at 25 ug/ml measured after 3 days relative to control. The format is functional. To be noted: 72 h, time 3 day.
In data set [13] the test system is Mycobacterium tuberculosis. Nature of the data set: Antimycobacterial activity against Mycobacterium tuberculosis H37Rv under starvation condition assessed as inhibition of bacterial growth at 100 ug/ml measured after 1 day relative to control. The conditions noted are these: 24 h. In kind it is functional.
The subject of data set [14] is Mycobacterium tuberculosis. As to the kind of experiment: Antimycobacterial activity against Mycobacterium tuberculosis H37Rv assessed as inhibition of bacterial growth at 100 ug/ml measured after 24 hrs relative to control. The format is functional.
The subject of data set [15] is Mycobacterium tuberculosis. As to the kind of experiment: Antimycobacterial activity against Mycobacterium tuberculosis H37Rv under starvation condition assessed as inhibition of bacterial growth at 100 ug/ml measured after 3 days relative to control. The format is functional. To be noted: 72 h, time 3 day.

Data on 2 molecules can be found in ChEMBL document CHEMBL4834440, “2,2,2-trifluoro-1-(1,4,5,6-tetrahydropyridin-3-yl)ethanone derivative as efflux pump inhibitor in Mycobacterium tuberculosis” (Bioorg Med Chem Lett, 2021).

Values after ≈ are worked out from the molar mass of the structure shown.

`O=C(C1=CN(CCc2ccccc2)C(NCCc2ccccc2)CC1)C(F)(F)F` (configuration not stated): the inhibition at 6.25 µg/mL in [1] was determined as 0%; in [5], 0%; in data set [6] it was 100%. For the same molecule, the values for the inhibition at 25 µg/mL in [2], in data set [8] and in data set [12] were 100%, 0% and 99.5%, respectively. Moreover, the inhibition at 100 µg/mL in [3] was found to be 100%; in data set [7] it was 99.9%; in [11] it was 100%; in data set [13], 97.5%; in data set [14] it was 89.5%; in [15], 99.9%. Further, the selectivity ratio in data set [4] was over 10. In addition, the MIC in data set [9] turned out to be 25 µg/mL (≈ 62.1 µM). Moreover, the viability at 24 h, 100 ug/ml in data set [10] is 80%. Moreover, the IC50 in the data set with Vero was 140 µg/mL (≈ 347 µM).

`CO[C@H]1/C=C/O[C@@]2(C)Oc3c(C)c(O)c4c(O)c(c(/C=N/N5CCN(C)CC5)c(O)c4c3C2=O)NC(=O)/C(C)=C\C=C\[C@H](C)[C@H](O)[C@@H](C)[C@@H](O)[C@@H](C)[C@H](OC(C)=O)[C@@H]1C` [RIFAMPIN]: the MIC in data set [9] was found to be 256 µg/mL (≈ 311 µM).

The inhibition is the change of the read-out against control, counted positive when it falls. As usually defined, the MIC is the lowest concentration that inhibits growth of the organism. In general, IC50 refers to the point on the concentration scale where inhibition reaches its midpoint.
